Laboratory results taken from patent publication US5763443A, “MDR resistance treatment and novel pharmaceutically active riminophenazines” (priority 1994, dated 1998).
Values after ≈ are worked out from the molar mass of the structure shown. Where two headings read alike, the source gives them in different places.

Legend:
[1] = test system: multi-drug resistant (MDR) lung carcinoma cell line H69/LX4; experiment: cells; settings: for IC50: Homo sapiens; for INCREASED SENSITIVITY H69/Lx4: Table VIII, values equal IC50 NONE / IC50 with VB 25 ng/ml of Table VII, 10080 min; for MDR reversal properties: with doxorubicin 12,5 ng/ml or vinblastine 25 ng/ml, FIGS. 4 to 7
Protocol: (§1) The riminophenazines of the above formula (I), contain an imino group. […] The potency of compounds of the above general formula, as inhibitors of multi-drug resistance, was assessed by sensitization of a P-glycoprotein positive cell line to drugs associated with this form of resistance. A human small cell lung cancer cell line H 69/P as well as a multi-drug resistance (MDR) sub-line H69/LX4 were used. These cell lines were obtained from the Medical Research Council Clinical Oncology and Radiotherapeutics Unit, Hills Road, Cambridge, England. The H69/LX4 line was selected in vitro by progressive exposure to increasing concentrations of doxorubicin in order to increase P-glycoprotein expression.
(§2) The cell lines used were human small cell lung cancer cell line HP69/P and a multi-drug resistant (MDR) sub-line H69/LX4, both of which were supplied by the MRC Clinical Oncology and Radiotherapeutics Unit, Hills Road, Cambridge, England. The maintenance of the cell lines and drug response assays was done as described by Twentyman et al in British Journal of Cancer Volume 65 pages 335-340. The H69/LX4 line was originally described by Twentyman et al in British Journal of Cancer Volume 53, pages 529-637 (1986).
(§3) The data in parenthesis represents fold sensitivity compared with the chemotherapeutic agent without the MDR inhibitor.
The results obtained, are illustrated graphically in FIGS. 4 to 7 of the accompanying drawings.
(§4) The general procedure set forth above was followed, i.e. 7 days incubation in the4 presence of doxorubicin at 12,5 ng/ml or vinblastine at 25 or 3 ng/ml.
(§5) The effects were examined over a seven (7) day exposure to different concentrations of B4119 and B4125 on the sensitivity of a doxorubicin resistant leukaemia cell line (K562/MMB) and a lung carcinoma cell line (H69/LX4) to doxorubicin (dox) and vinblastine (VB) using the MTT assay.

[2] = test system: MDR leukaemia cell line K562/MMB; experiment: cells; settings: for IC50: Homo sapiens; for MDR activity / sensitivity against cell line K562/MMP: compared with known reference compound B4100
Protocol: A third cell line (562/MMB) used was a MDR leukemia cell line selected in vitro by progressive exposure to increasing concentrations of vinblastine in order to increase P-glycoprotein expression. This cell line was developed in the Department of Immunology, University of Pretoria from K562 (ATCC CCL 243) supplied by Highveld Biological (Pty) Ltd, Sandton.
as §4, §5

[3] = test system: gram positive microorganisms (Mycobacterium, Enterococcus, Streptococcus, methicillin resistant Staphylococcus); experiment: anti-bacterial activity
[4] = test system: human small cell lung cancer cell line H69/P; experiment: MTT assay, 7 day exposure, sensitivity of parent cell line H69/P to chemotherapeutic agents; assay type: cell-based
Protocol: as §1, §2, §3

H69/LX4 cells = experiment: [14C]-vinblastine accumulation in MDR cell line; assay type: cell-based, human; settings: 1 hour pretreatment, 30 minutes [14C]-vinblastine
Protocol: The effect of riminophenazines on the accumulation of [^14 C]-vinblastine was investigated. For these experiments, both of the above cell lines (H69/LX4 and H69/P) were prepared as described by Coley et al (Biochem. Pharmacal 38, 4467-4475 (1989)). After a 1 hour pretreatment with the MDR reversal agents, cells (1×10^6 /ml) were exposed to […] [^14 C]-vinblastine (1 μCi specific activity) for 30 minutes.

[5] = bio-availability (no method given)
[6] = 168 h, read-out: IC 50 H69/Lx4 NONE
[7] = read-out: IC 50 H69/Lx4 DOX 12 ng/ml
[8] = read-out: IC 50 H69/Lx4 VB 25 ng/ml
[9] = K562, read-out: IC 50 K562/MMB VB 3 ng/ml, Table VII, with vinblastine 3 ng/ml
[10] = Table VIII, values equal IC50 NONE / IC50 with VB 3 ng/ml of Table VII, 10080 min
[11] = read-out: IC50 H69/LX4 +VB (25 ng/ml)
[12] = read-out: IC50 H69/LX4 +dox (12 ng/ml)
[13] = K562, 168 h, read-out: IC 50 K562/MMB NONE
[14] = K562, read-out: IC50 K562/MMB +VB (3 ng/ml), Table VI, with vinblastine 3 ng/ml
[15] = K562, read-out: IC50 K562/MMB +dox (12 ng/ml), Table VI, with doxorubicin 12 ng/ml
[16] = K562, read-out: IC 50 K562/MMB DOX 12 ng/ml, Table VII, with doxorubicin 12 ng/ml
[17] = K562, read-out: IC50 K562/MMB none
[18] = H69/P, CsA 5 μg/ml, clofazimine 1 μg/ml or B669 0.5 μg/ml
[19] = H69/LX4, CsA 5 μg/ml, clofazimine 1 μg/ml or B669 0.5 μg/ml

Row | Structure (SMILES) | IC50 [1, 6] [µg/mL] | IC50 [1, 7] [µg/mL] | IC50 [1, 8] [µg/mL] | INCREASED SENSITIVITY H69/Lx4 [1] | IC50 [2, 9] [µg/mL] | INCREASED SENSITIVITY K 562/MMB [2, 10] | MDR activity / sensitivity against cell line K562/MMP [2] | anti-bacterial activity [3] | other results
1 | CC1(C)CC(N=c2cc3n(-c4cc(Cl)cc(Cl)c4)c4ccccc4nc-3cc2Nc2cc(Cl)cc(Cl)c2)CC(C)(C)N1 [Compound B4121, N,5-bis(3,5-dichiorophenyl)-3,5-dihydro-3-[(2',2',6',6'-tetramethyl-4-pipendyl)-imino]-2-phenazinamine] | 1.23 (≈ 1.92 µM) | 0.524 (≈ 0.819 µM) | 0.162 (≈ 0.253 µM) | 7.57 | 0.023 (≈ 0.036 µM) | 97.83 | increased substantially and unexpectedly | Particularly active | 
2 | CC1(C)CC(N=c2cc3n(-c4ccc(F)c(Cl)c4)c4ccccc4nc-3cc2Nc2ccc(F)c(Cl)c2)CC(C)(C)N1 [Compound B4119, N,5-bis(3-chloro-4-fluorophenyl)-3,5-dihydro-3-[(2',2',6',6'-tetramethyl-4-piperidyl)-imino]-2-phenazinamine] | 0.62 (≈ 1.02 µM) | 0.6 (≈ 0.989 µM) | 0.109 (≈ 0.18 µM) | 5.69 | 0.189 (≈ 0.312 µM) | 1.46 |  | Particularly active | IC50 [1, 11]: 0.109 µg/mL (≈ 0.18 µM); IC50 [1, 12]: 0.6 µg/mL (≈ 0.989 µM); IC50 ([1]; read-out: IC50 H69/LX4 none): 0.62 µg/mL (≈ 1.02 µM); IC50 [2, 13]: 0.276 µg/mL (≈ 0.455 µM); IC50 [2, 14]: 0.189 µg/mL (≈ 0.312 µM); IC50 [2, 15]: 0.147 µg/mL (≈ 0.242 µM); IC50 [2, 16]: 0.147 µg/mL (≈ 0.242 µM); IC50 [2, 17]: 0.276 µg/mL (≈ 0.455 µM)
3 | CC1(C)CC(N=c2cc3n(-c4cccc(C(F)(F)F)c4)c4ccccc4nc-3cc2Nc2cccc(C(F)(F)F)c2)CC(C)(C)N1 [Compound B4126, N,5-bis(3-trifluoromethyl-phenyl)-3,5-dihydro-3-[(2',2',6',6'-tetramethyl-4-piperidyl)-imino]-2-phenazinamine] | 0.699 (≈ 1.1 µM) | 0.455 (≈ 0.714 µM) | 0.26 (≈ 0.408 µM) | 2.69 |  | 4.45 |  | Particularly active | 
4 | CC(C)N=c1cc2n(-c3ccc(Cl)cc3)c3ccccc3nc-2cc1Nc1ccc(Cl)cc1 [Compound B663, N,5-bis-(4-chlorophenyl)-3,5-dihydro-3-[(1-methylethyl)imino]-2-phenazinamine, reference compound] | 2.5 (≈ 5.28 µM) | 1.31 (≈ 2.78 µM) | 0.372 (≈ 0.786 µM) | 6.72 | 0.038 (≈ 0.0803 µM) |  | good activity |  | fold sensitivity to Etoposide compared with agent without MDR inhibitor ([4]; 168 h, 1 ug/mL): 0.6 fold; fold sensitivity to Cyclophosphamide compared with agent without MDR inhibitor [4, 18]: 0.9 fold; fold sensitivity to Daunorubicin compared with agent without MDR inhibitor [4, 18]: 1.0 fold; fold sensitivity to Doxorubicin compared with agent without MDR inhibitor [4, 18]: 0.8 fold; fold sensitivity to Methotrexate compared with agent without MDR inhibitor [4, 18]: 0.9 fold; fold sensitivity to Mitomycin C compared with agent without MDR inhibitor [4, 18]: 0.7 fold; fold sensitivity to Vinblastine compared with agent without MDR inhibitor [4, 18]: 1.3 fold; fold sensitivity to Etoposide compared with agent without MDR inhibitor ([1]; 168 h, 1 ug/mL): 5.0 fold; fold sensitivity to Cyclophosphamide compared with agent without MDR inhibitor [1, 19]: 1.0 fold; fold sensitivity to Daunorubicin compared with agent without MDR inhibitor [1, 19]: 4 fold; fold sensitivity to Doxorubicin compared with agent without MDR inhibitor [1, 19]: 11 fold; fold sensitivity to Methotrexate compared with agent without MDR inhibitor [1, 19]: 0.7 fold; fold sensitivity to Mitomycin C compared with agent without MDR inhibitor [1, 19]: 1.7 fold; fold sensitivity to Vinblastine compared with agent without MDR inhibitor [1, 19]: ~13 fold; fold sensitivity to Vinblastine compared with agent without MDR inhibitor ([1]; H69/LX4, CsA 5 μg/ml, clofazimine 1 μg/ml or B669 0.5 μg/ml, listed as Clofazimine (B663)): 13.7 fold; INCREASED S[…] 562/MMB [2, 10]: 5.92; vinblastine accumulation in the MDR cell line (H69/LX4 cells): significant enhancement
5 | CC1(C)CC(N=c2cc3n(-c4ccccc4Cl)c4ccccc4nc-3cc2Nc2ccccc2Cl)CC(C)(C)N1 [Compound B4125, N,5-bis(2-chlorophenyl)-3,5-dihydro-3-[(2',2',6',6'-tetramethyl-4-piperidyl)-imino]-2-phenazinamine] | 0.785 (≈ 1.38 µM) | 0.521 (≈ 0.913 µM) | 0.399 (≈ 0.699 µM) | 1.97 | 0.026 (≈ 0.0456 µM) | 11.96 | exceptionally good activity | Particularly active | IC50 [1, 11]: 0.399 µg/mL (≈ 0.699 µM); IC50 [1, 12]: 0.521 µg/mL (≈ 0.913 µM); IC50 ([1]; read-out: IC50 H69/LX4 none): 0.785 µg/mL (≈ 1.38 µM); IC50 [2, 13]: 0.311 µg/mL (≈ 0.545 µM); IC50 [2, 14]: 0.026 µg/mL (≈ 0.0456 µM); IC50 [2, 15]: 0.188 µg/mL (≈ 0.329 µM); IC50 [2, 16]: 0.188 µg/mL (≈ 0.329 µM); IC50 [2, 17]: 0.311 µg/mL (≈ 0.545 µM)
6 | CC1(C)CC(N=c2cc3n(-c4ccc(C(F)(F)F)cc4)c4ccccc4nc-3cc2Nc2ccc(C(F)(F)F)cc2)CC(C)(C)N1 [Compound B4103, N,5-bis(4-trifluoromethylphenyl)-3,5-dihydro-3[(2',2',6',6'-tetramethyl-4-piperidyl)imino]-2-phenazinamine] | 0.755 (≈ 1.18 µM) | 0.552 (≈ 0.866 µM) | 0.145 (≈ 0.227 µM) | 5.21 |  | 0.69 |  |  | MDR reversal properties ([1]; H69/LX4): Very good MDR reversal properties; bio-availability [5]: good bio-availability
7 | CC(C)c1ccc(Nc2cc3nc4ccccc4n(-c4ccc(C(C)C)cc4)c-3cc2=NC2CC(C)(C)NC(C)(C)C2)cc1 [Compound B4158, N,5-bis(4-isopropylphenyl)-3,5-dihydro-3-[(2',2',6',6'-tetramethyl-4-piperidyl)-imino]-2-phenazinamine] | 0.408 (≈ 0.696 µM) | 0.343 (≈ 0.585 µM) | 0.124 (≈ 0.212 µM) | 3.29 |  | 4.69 |  |  | MDR activity against the cell line H69/LX4 [1]: Reasonably good activity; MDR reversal properties ([1]; H69/LX4): Very good MDR reversal properties; bio-availability [5]: good bio-availability
8 | CC1(C)CC(N=c2cc3n(-c4cccc(Cl)c4)c4ccc(Cl)cc4nc-3cc2Nc2cccc(Cl)c2)CC(C)(C)N1 [Compound B4123, N,5-bis(3-chlorophenyl)-8-chloro-3,5-dihydro-3[(2',2',6',6'-tetramethyl-4-piperidyl)-imino]-2-phenazinamine] | 1.18 (≈ 1.94 µM) | 1.02 (≈ 1.69 µM) | 0.251 (≈ 0.415 µM) | 4.69 | 0.049 (≈ 0.081 µM) | 6.80 | exceptionally good activity |  | 
9 | CC1(C)CC(N=c2cc3n(-c4ccc(Cl)cc4Cl)c4ccccc4nc-3cc2Nc2ccc(Cl)cc2Cl)CC(C)(C)N1 [Compound B4128, N,5-bis(2,4-dichiorophenyl)-3,5-dihydro-3-[(2',2',6',6'-tetramethyl-4-piperidyl)-imino]-2-phenazinamine] | 1.23 (≈ 1.92 µM) | 0.782 (≈ 1.22 µM) | 0.434 (≈ 0.679 µM) | 2.82 |  | 6.49 | increased substantially and unexpectedly |  | 
